How the values were obtained:
[1] = tested on: FB1_39 (DNA, aptamer) ATACCAGCTTATTCAATTAATCGCATTACCTTATACCAGCTTATTCAATTACGTCTGCACATACCAGCTTATTCAATTAGATAGTAAGTGCAATCT; assay: magnetic beads assay, fluorescence; conditions: 100 mM NaCl, 2 mM MgCl2, 5 mM KCl, 1 mM CaCl2; immobilised compound; 20 mM Tris, pH 7.6, room temperature; aptamer 0.5-100 nM
[2] = tested on: FB1_39t3 (DNA, aptamer) ATACCAGCTTATTCAATTAATCGCATTACCTTATACCAGCTTATTCAATTACGTCTGCACATACCAGCTTATTCAATT; assay: magnetic beads assay, fluorescence; conditions: 100 mM NaCl, 2 mM MgCl2, 5 mM KCl, 1 mM CaCl2; immobilised compound; 20 mM Tris, pH 7.6, room temperature; aptamer up to 2000 nM
[3] = tested on: FB1_10 (DNA, aptamer) AGCAGCACAGAGGTCAGATGCGATCTGGATATTATTTTTGATACCCCTTTGGGGAGACATCCTATGCGTGCTACCGTGAA; assay: microscale thermophoresis; conditions: 100 mM NaCl, 2 mM MgCl2, 5 mM KCl, 1 mM CaCl2; 20 mM Tris-HCl, 0.02% Tween 20, pH 7.4, 25 °C; 5 nM aptamer
[4] = tested on: FB1_39 (DNA, aptamer) ATACCAGCTTATTCAATTAATCGCATTACCTTATACCAGCTTATTCAATTACGTCTGCACATACCAGCTTATTCAATTAGATAGTAAGTGCAATCT; assay: microscale thermophoresis; conditions: 100 mM NaCl, 2 mM MgCl2, 5 mM KCl, 1 mM CaCl2; 20 mM Tris, pH 7.6, 25 °C; 5 nM aptamer
[5] = tested on: FB1_10 (DNA, aptamer) AGCAGCACAGAGGTCAGATGCGATCTGGATATTATTTTTGATACCCCTTTGGGGAGACATCCTATGCGTGCTACCGTGAA; assay: magnetic beads assay, fluorescence; conditions: 100 mM NaCl, 2 mM MgCl2, 5 mM KCl, 1 mM CaCl2; immobilised compound; 20 mM Tris-HCl, 0.02% Tween 20, pH 7.4, room temperature; aptamer up to 2000 nM
[6] = tested on: FB1_39t3 (DNA, aptamer) ATACCAGCTTATTCAATTAATCGCATTACCTTATACCAGCTTATTCAATTACGTCTGCACATACCAGCTTATTCAATT; assay: microscale thermophoresis; conditions: 100 mM NaCl, 2 mM MgCl2, 5 mM KCl, 1 mM CaCl2; 20 mM Tris, pH 7.6, 25 °C; 5 nM aptamer

KD [1]: 1.53 ± 0.67 nM
binding [2]: no
KD [3]: 162 ± 137 nM
KD [4]: 31 ± 22 nM
binding [5]: no
KD [6]: 2200 ± 1100 nM
Structure (SMILES): CCCC[C@@H](C)[C@@H](OC(=O)C[C@@H](CC(=O)O)C(=O)O)[C@H](C[C@@H](C)C[C@H](O)CCCC[C@@H](O)C[C@H](O)[C@H](C)N)OC(=O)C[C@@H](CC(=O)O)C(=O)O
